{"source": "paper PMC10999558", "about": "“Analyzing resistome in soil and Human gut: a study on the characterization and risk evaluation of antimicrobial peptide resistance” (Frontiers in Microbiology, 2024)", "assay_type_in_all_cases": "cell-based, Escherichia coli", "settings_in_all_cases": "MHB, 37°C, 24 h, triplicate", "key": {"E. coli JM109": {"system": "E. coli JM109", "experiment": "MIC, broth microdilution, retransformed E. coli JM109", "description": "(§1) Escherichia coli DH5α, E. coli BL21(DE3), and E. coli JM109 were utilized in this study.\n(§2) The MICs were determined using the broth microdilution method in 96-well microtiter plates ([Wiegand et al., 2008]). In brief, a 1:100 dilution of the mid-exponential phase bacterial culture (OD600 = 0.5), consisting of 5 μL (1 × 10^5 CFU/mL), was introduced into polypropylene 96-well plates. These plates contained a two-fold dilution series of AMP in a total volume of 100 μL MHB per well. The incubation of the plates occurred at 37°C in a humidity chamber. The MIC was identified as the lowest concentration that hindered visible bacterial growth after 24 h of incubation. Each experiment was conducted in triplicate.\n(§3) Before washing down the colonies, we randomly selected two clones from each plate containing distinct AMP. Colony PCRs were conducted using M13 primer pairs to validate the presence of inserts and determine their sizes. The selected colonies were then subjected to sequencing. The specific details are provided in Supplementary Table S2. Following that, plasmids were isolated using the Plasmid Midiprep Kit (Zomanbio, ZP103) following the manufacturer’s guidelines. After the plasmids were successfully reintroduced into E. coli JM109 and E. coli BL 21(DE3), the MICs of the transformed strains against the AMP used for selection were tested. This testing process was carried out in triplicate.\n(§4) Following validation, the colonies displaying resistance underwent additional testing via MIC assessments for the remaining four AMPs that were not employed during the selection process. This experimental procedure was carried out in triplicate."}, "E. coli BL21(DE3)": {"system": "E. coli BL21(DE3)", "experiment": "MIC, broth microdilution, retransformed E. coli BL21(DE3)", "description": "as §1, §2, §3, §4"}, "E. coli DH5α": {"system": "E. coli DH5α", "experiment": "MIC, broth microdilution, E. coli DH5α carrying pUC118 or resistance-conferring plasmids", "description": "as §1, §2, §4"}}}
{"substance": "Polymyxin B [PB]", "values": [{"measurement": "MIC", "setting": "E. coli JM109; colony pUC118-FCST1-JM109 (feces insert 1 selected against colistin)", "result": 0.25, "unit": "µg/mL"}, {"measurement": "MIC", "setting": "E. coli JM109; colony pUC118-FCST2-JM109 (feces insert 2 selected against colistin)", "result": 1, "unit": "µg/mL"}, {"measurement": "MIC", "setting": "E. coli JM109; colony pUC118-FGQ1-JM109 (feces insert 1 selected against melittin)", "result": 0.5, "unit": "µg/mL"}, {"measurement": "MIC", "setting": "E. coli JM109; colony pUC118-FGQ2-JM109 (feces insert 2 selected against melittin)", "result": 0.5, "unit": "µg/mL"}, {"measurement": "MIC", "setting": "E. coli JM109; colony pUC118-FIB1-JM109 (feces insert 1 selected against iseganan)", "result": 0.25, "unit": "µg/mL"}, {"measurement": "MIC", "setting": "E. coli JM109; colony pUC118-FIB2-JM109 (feces insert 2 selected against iseganan)", "result": 0.5, "unit": "µg/mL"}, {"measurement": "MIC", "setting": "E. coli JM109; colony pUC118-FPB1-JM109 (feces insert 1 selected against polymyxin B)", "result": 0.5, "unit": "µg/mL"}, {"measurement": "MIC", "setting": "E. coli JM109; colony pUC118-FPB2-JM109 (feces insert 2 selected against polymyxin B)", "result": 0.5, "unit": "µg/mL"}, {"measurement": "MIC", "setting": "E. coli JM109; colony pUC118-FSA1-JM109 (feces insert 1 selected against cathelicidin-DM)", "result": 0.25, "unit": "µg/mL"}, {"measurement": "MIC", "setting": "E. coli JM109; colony pUC118-FSA2-JM109 (feces insert 2 selected against cathelicidin-DM)", "result": 0.5, "unit": "µg/mL"}, {"measurement": "MIC", "setting": "E. coli JM109; colony pUC118-JM109 (control, no insert)", "result": 0.25, "unit": "µg/mL"}, {"measurement": "MIC", "setting": "E. coli JM109; colony pUC118-SCST1-JM109 (soil insert 1 selected against colistin)", "result": 0.25, "unit": "µg/mL"}, {"measurement": "MIC", "setting": "E. coli JM109; colony pUC118-SCST2-JM109 (soil insert 2 selected against colistin)", "result": 0.25, "unit": "µg/mL"}, {"measurement": "MIC", "setting": "E. coli JM109; colony pUC118-SGQ1-JM109 (soil insert 1 selected against melittin)", "result": 0.25, "unit": "µg/mL"}, {"measurement": "MIC", "setting": "E. coli JM109; colony pUC118-SGQ2-JM109 (soil insert 2 selected against melittin)", "result": 0.25, "unit": "µg/mL"}, {"measurement": "MIC", "setting": "E. coli JM109; colony pUC118-SIB1-JM109 (soil insert 1 selected against iseganan)", "result": 0.25, "unit": "µg/mL"}, {"measurement": "MIC", "setting": "E. coli JM109; colony pUC118-SIB2-JM109 (soil insert 2 selected against iseganan)", "result": 0.25, "unit": "µg/mL"}, {"measurement": "MIC", "setting": "E. coli JM109; colony pUC118-SPB1-JM109 (soil insert 1 selected against polymyxin B)", "result": 0.5, "unit": "µg/mL"}, {"measurement": "MIC", "setting": "E. coli JM109; colony pUC118-SPB2-JM109 (soil insert 2 selected against polymyxin B)", "result": 0.5, "unit": "µg/mL"}, {"measurement": "MIC", "setting": "E. coli JM109; colony pUC118-SSA1-JM109 (soil insert 1 selected against cathelicidin-DM)", "result": 0.25, "unit": "µg/mL"}, {"measurement": "MIC", "setting": "E. coli JM109; colony pUC118-SSA2-JM109 (soil insert 2 selected against cathelicidin-DM)", "result": 0.25, "unit": "µg/mL"}, {"measurement": "MIC", "setting": "E. coli BL21(DE3); colony pUC118-BL21(DE3) (control, no insert)", "result": 1, "unit": "µg/mL"}, {"measurement": "MIC", "setting": "E. coli BL21(DE3); colony pUC118-FCST1-BL21(DE3) (feces insert 1 selected against colistin)", "result": 1, "unit": "µg/mL"}, {"measurement": "MIC", "setting": "E. coli BL21(DE3); colony pUC118-FCST2-BL21(DE3) (feces insert 2 selected against colistin)", "result": 2, "unit": "µg/mL"}, {"measurement": "MIC", "setting": "E. coli BL21(DE3); colony pUC118-FGQ1-BL21(DE3) (feces insert 1 selected against melittin)", "result": 2, "unit": "µg/mL"}, {"measurement": "MIC", "setting": "E. coli BL21(DE3); colony pUC118-FGQ2- BL21(DE3) (feces insert 2 selected against melittin)", "result": 2, "unit": "µg/mL"}, {"measurement": "MIC", "setting": "E. coli BL21(DE3); colony pUC118-FIB1-BL21(DE3) (feces insert 1 selected against iseganan)", "result": 1, "unit": "µg/mL"}, {"measurement": "MIC", "setting": "E. coli BL21(DE3); colony pUC118-FIB2-BL21(DE3) (feces insert 2 selected against iseganan)", "result": 2, "unit": "µg/mL"}, {"measurement": "MIC", "setting": "E. coli BL21(DE3); colony pUC118-FPB1-BL21(DE3) (feces insert 1 selected against polymyxin B)", "result": 4, "unit": "µg/mL"}, {"measurement": "MIC", "setting": "E. coli BL21(DE3); colony pUC118-FPB2-BL21(DE3) (feces insert 2 selected against polymyxin B)", "result": 2, "unit": "µg/mL"}, {"measurement": "MIC", "setting": "E. coli BL21(DE3); colony pUC118-FSA1-BL21(DE3) (feces insert 1 selected against cathelicidin-DM)", "result": 1, "unit": "µg/mL"}, {"measurement": "MIC", "setting": "E. coli BL21(DE3); colony pUC118-FSA2-BL21(DE3) (feces insert 2 selected against cathelicidin-DM)", "result": 4, "unit": "µg/mL"}, {"measurement": "MIC", "setting": "E. coli BL21(DE3); colony pUC118-SCST1-BL21(DE3) (soil insert 1 selected against colistin)", "result": 1, "unit": "µg/mL"}, {"measurement": "MIC", "setting": "E. coli BL21(DE3); colony pUC118-SCST2-BL21(DE3) (soil insert 2 selected against colistin)", "result": 1, "unit": "µg/mL"}, {"measurement": "MIC", "setting": "E. coli BL21(DE3); colony pUC118-SGQ1-BL21(DE3) (soil insert 1 selected against melittin)", "result": 1, "unit": "µg/mL"}, {"measurement": "MIC", "setting": "E. coli BL21(DE3); colony pUC118-SGQ2-BL21(DE3) (soil insert 2 selected against melittin)", "result": 1, "unit": "µg/mL"}, {"measurement": "MIC", "setting": "E. coli BL21(DE3); colony pUC118-SIB1-BL21(DE3) (soil insert 1 selected against iseganan)", "result": 1, "unit": "µg/mL"}, {"measurement": "MIC", "setting": "E. coli BL21(DE3); colony pUC118-SIB2-BL21(DE3) (soil insert 2 selected against iseganan)", "result": 1, "unit": "µg/mL"}, {"measurement": "MIC", "setting": "E. coli BL21(DE3); colony pUC118-SPB1-BL21(DE3) (soil insert 1 selected against polymyxin B)", "result": 2, "unit": "µg/mL"}, {"measurement": "MIC", "setting": "E. coli BL21(DE3); colony pUC118-SPB2-BL21(DE3) (soil insert 2 selected against polymyxin B)", "result": 2, "unit": "µg/mL"}, {"measurement": "MIC", "setting": "E. coli BL21(DE3); colony pUC118-SSA1-BL21(DE3) (soil insert 1 selected against cathelicidin-DM)", "result": 1, "unit": "µg/mL"}, {"measurement": "MIC", "setting": "E. coli BL21(DE3); colony pUC118-SSA2-BL21(DE3) (soil insert 2 selected against cathelicidin-DM)", "result": 1, "unit": "µg/mL"}, {"measurement": "MIC", "setting": "E. coli DH5α; E. coli DH5α containing pUC118 plasmids", "result": 0.5, "unit": "µg/mL"}, {"measurement": "MIC", "setting": "E. coli DH5α; colony pUC118-DH5α (control, no insert)", "result": 0.5, "unit": "µg/mL"}, {"measurement": "MIC", "setting": "E. coli DH5α; colony pUC118-FCST1-DH5α (feces insert 1 selected against colistin)", "result": 0.5, "unit": "µg/mL"}, {"measurement": "MIC", "setting": "E. coli DH5α; colony pUC118-FCST2-DH5α (feces insert 2 selected against colistin)", "result": 1, "unit": "µg/mL"}, {"measurement": "MIC", "setting": "E. coli DH5α; colony pUC118-FGQ1-DH5α (feces insert 1 selected against melittin)", "result": 1, "unit": "µg/mL"}, {"measurement": "MIC", "setting": "E. coli DH5α; colony pUC118-FGQ2-DH5α (feces insert 2 selected against melittin)", "result": 1, "unit": "µg/mL"}, {"measurement": "MIC", "setting": "E. coli DH5α; colony pUC118-FIB1-DH5α (feces insert 1 selected against iseganan)", "result": 0.5, "unit": "µg/mL"}, {"measurement": "MIC", "setting": "E. coli DH5α; colony pUC118-FIB2-DH5α (feces insert 2 selected against iseganan)", "result": 1, "unit": "µg/mL"}, {"measurement": "MIC", "setting": "E. coli DH5α; colony pUC118-FPB1-DH5α (feces insert 1 selected against polymyxin B)", "result": 1, "unit": "µg/mL"}, {"measurement": "MIC", "setting": "E. coli DH5α; colony pUC118-FPB2-DH5α (feces insert 2 selected against polymyxin B)", "result": 1, "unit": "µg/mL"}, {"measurement": "MIC", "setting": "E. coli DH5α; colony pUC118-FSA1-DH5α (feces insert 1 selected against cathelicidin-DM)", "result": 0.5, "unit": "µg/mL"}, {"measurement": "MIC", "setting": "E. coli DH5α; colony pUC118-FSA2-DH5α (feces insert 2 selected against cathelicidin-DM)", "result": 1, "unit": "µg/mL"}, {"measurement": "MIC", "setting": "E. coli DH5α; colony pUC118-SCST1-DH5α (soil insert 1 selected against colistin)", "result": 0.5, "unit": "µg/mL"}, {"measurement": "MIC", "setting": "E. coli DH5α; colony pUC118-SCST2-DH5α (soil insert 2 selected against colistin)", "result": 0.5, "unit": "µg/mL"}, {"measurement": "MIC", "setting": "E. coli DH5α; colony pUC118-SGQ1-DH5α (soil insert 1 selected against melittin)", "result": 0.5, "unit": "µg/mL"}, {"measurement": "MIC", "setting": "E. coli DH5α; colony pUC118-SGQ2-DH5α (soil insert 2 selected against melittin)", "result": 0.5, "unit": "µg/mL"}, {"measurement": "MIC", "setting": "E. coli DH5α; colony pUC118-SIB1-DH5α (soil insert 1 selected against iseganan)", "result": 0.5, "unit": "µg/mL"}, {"measurement": "MIC", "setting": "E. coli DH5α; colony pUC118-SIB2-DH5α (soil insert 2 selected against iseganan)", "result": 0.5, "unit": "µg/mL"}, {"measurement": "MIC", "setting": "E. coli DH5α; colony pUC118-SPB1-DH5α (soil insert 1 selected against polymyxin B)", "result": 1, "unit": "µg/mL"}, {"measurement": "MIC", "setting": "E. coli DH5α; colony pUC118-SPB2-DH5α (soil insert 2 selected against polymyxin B)", "result": 2, "unit": "µg/mL"}, {"measurement": "MIC", "setting": "E. coli DH5α; colony pUC118-SSA1-DH5α (soil insert 1 selected against cathelicidin-DM)", "result": 0.5, "unit": "µg/mL"}, {"measurement": "MIC", "setting": "E. coli DH5α; colony pUC118-SSA2-DH5α (soil insert 2 selected against cathelicidin-DM)", "result": 0.5, "unit": "µg/mL"}]}
